Test results from PubChem BioAssay AID2060341 (Molecular Pharmacology Branch, DTP, NCI, 2025).
“And” between values parts separate entries of the source, which are not always exact repeats. Equal entries are not always repeated.

Tested on: 327498-153-R-J2-PDC multicell spheroid viability
Experiment: Anticancer human tumor 327498-153-R-J2-PDC patient-derived uterine carcinosarcoma cell line growth inhibition [IpAb]
Conditions: for viability, T/C: stronger effect = lower value; active = viability on the fitted dose curve at most 10% of control; inactive = the rest
Method in brief: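 Spheroids of 60% malignant cells, 25% HUVEC and 15% MSC were exposed to targeted agents combined with ipatasertib or abemaciclib. Doses started at or near clinical Cmax (10 microM when unknown) and fell in half-log steps.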

[1] = curve of first compound, second compound 0.01 µM
[2] = curve of first compound, second compound 0.0316 µM
[3] = curve of first compound, second compound 0.1 µM
[4] = curve of first compound, second compound 0.316 µM
[5] = curve of first compound, second compound 1 µM
[6] = second compound 0.01 µM, first compound 0.00949 µM
[7] = second compound 0.01 µM, first compound 0.03 µM
[8] = second compound 0.01 µM, first compound 0.0949 µM
[9] = second compound 0.01 µM, first compound 0.3 µM
[10] = second compound 0.01 µM, first compound 0.949 µM
[11] = second compound 0.01 µM, first compound 3 µM
[12] = second compound 0.0316 µM, first compound 0.00949 µM
[13] = second compound 0.0316 µM, first compound 0.03 µM
[14] = second compound 0.0316 µM, first compound 0.0949 µM
[15] = second compound 0.0316 µM, first compound 0.3 µM
[16] = second compound 0.0316 µM, first compound 0.949 µM
[17] = second compound 0.0316 µM, first compound 3 µM
[18] = second compound 0.1 µM, first compound 0.00949 µM
[19] = second compound 0.1 µM, first compound 0.03 µM
[20] = second compound 0.1 µM, first compound 0.0949 µM
[21] = second compound 0.1 µM, first compound 0.3 µM
[22] = second compound 0.1 µM, first compound 0.949 µM
[23] = second compound 0.1 µM, first compound 3 µM
[24] = second compound 0.316 µM, first compound 0.00949 µM
[25] = second compound 0.316 µM, first compound 0.03 µM
[26] = second compound 0.316 µM, first compound 0.0949 µM
[27] = second compound 0.316 µM, first compound 0.3 µM
[28] = second compound 0.316 µM, first compound 0.949 µM
[29] = second compound 0.316 µM, first compound 3 µM
[30] = second compound 1 µM, first compound 0.00949 µM
[31] = second compound 1 µM, first compound 0.03 µM
[32] = second compound 1 µM, first compound 0.0949 µM
[33] = second compound 1 µM, first compound 0.3 µM
[34] = second compound 1 µM, first compound 0.949 µM
[35] = second compound 1 µM, first compound 3 µM
[36] = second compound 0.1 µM, first compound 0.0316 µM
[37] = second compound 0.1 µM, first compound 0.1 µM
[38] = second compound 0.316 µM, first compound 0.0316 µM
[39] = second compound 0.316 µM, first compound 0.1 µM
[40] = second compound 1 µM, first compound 0.0316 µM
[41] = second compound 1 µM, first compound 0.1 µM
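For viability, T/C in this document: 100% = DMSO vehicle control viability.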

CC(C)(C)c1cnc(CSc2cnc(NC(=O)C3CCNCC3)s2)o1 + CCN1CCN(Cc2ccc(Nc3ncc(F)c(-c4cc(F)c5nc(C)n(C(C)C)c5c4)n3)nc2)CC1
0.105 µM: IC50 [2]
0.142 µM: IC50 [1]
0.0375 µM: IC50 [4]
active: viability, T/C [9] 2.61% | viability, T/C [10] 0.63% | viability, T/C [11] 0.6% | viability, T/C [15] 1.44% | viability, T/C [16] 0.56% | viability, T/C [17] 0.66% | viability, T/C [21] 0.6% | viability, T/C [22] 0.61% | viability, T/C [23] 0.61% | viability, T/C [27] 0.81% | viability, T/C [28] 0.6% | viability, T/C [29] 0.72% | viability, T/C [33] 0.56% | viability, T/C [34] 1.62% | viability, T/C [35] 0.76%
0.0834 µM: IC50 [3]
0.0344 µM: IC50 [5]
inactive: viability, T/C [6] 90% | viability, T/C [7] 80.7% | viability, T/C [8] 75.5% | viability, T/C [12] 76.8% | viability, T/C [13] 68.4% | viability, T/C [14] 54.6% | viability, T/C [18] 57.6% | viability, T/C [19] 67.6% | viability, T/C [20] 48.4% | viability, T/C [24] 51.6% | viability, T/C [25] 54.3% | viability, T/C [26] 37.6% | viability, T/C [30] 55.4% | viability, T/C [31] 50.8% | viability, T/C [32] 29.8%

Cn1cnc2c(F)c(Nc3ccc(Br)cc3Cl)c(C(=O)NOCCO)cc21 + CCN1CCN(Cc2ccc(Nc3ncc(F)c(-c4cc(F)c5nc(C)n(C(C)C)c5c4)n3)nc2)CC1
0.19 µM: IC50 [1]
< 0.00949 µM: IC50 [3] | IC50 [4] | IC50 [5]
0.0195 µM: IC50 [2]
inactive: viability, T/C [6] 79.8% | viability, T/C [7] 64.2% | viability, T/C [8] 53.6% | viability, T/C [9] 48.5% | viability, T/C [10] 38.1% | viability, T/C [11] 24.4% | viability, T/C [12] 54.8% | viability, T/C [13] 46.3% | viability, T/C [14] 40.3% | viability, T/C [15] 39% | viability, T/C [16] 31.6% | viability, T/C [17] 22% | viability, T/C [18] 48.9% | viability, T/C [19] 42.7% | viability, T/C [20] 39.5% | viability, T/C [21] 33.9% | viability, T/C [22] 28.5% | viability, T/C [23] 20.9% | viability, T/C [24] 42.9% | viability, T/C [25] 41.7% | viability, T/C [26] 35.9% | viability, T/C [27] 33% | viability, T/C [28] 24.6% | viability, T/C [29] 20.3% | viability, T/C [30] 45.3% | viability, T/C [31] 43% | viability, T/C [32] 36.5% | viability, T/C [33] 29.4% | viability, T/C [34] 26.3% | viability, T/C [35] 17.8%

Cn1ncnc1[C@H]1c2n[nH]c(=O)c3cc(F)cc(c23)N[C@@H]1c1ccc(F)cc1 + CCN1CCN(Cc2ccc(Nc3ncc(F)c(-c4cc(F)c5nc(C)n(C(C)C)c5c4)n3)nc2)CC1
0.00284 µM: IC50 [4]
inactive: viability, T/C (second compound 0.01 µM, first compound 0.000316 µM) 96% | viability, T/C (second compound 0.01 µM, first compound 0.001 µM) 87.3% | viability, T/C (second compound 0.01 µM, first compound 0.00316 µM) 85.3% | viability, T/C (second compound 0.01 µM, first compound 0.01 µM) 58.1% | viability, T/C (second compound 0.01 µM, first compound 0.0316 µM) 42.3% | viability, T/C (second compound 0.01 µM, first compound 0.1 µM) 25.2% | viability, T/C (second compound 0.0316 µM, first compound 0.000316 µM) 74.8% | viability, T/C (second compound 0.0316 µM, first compound 0.001 µM) 70% | viability, T/C (second compound 0.0316 µM, first compound 0.00316 µM) 63.3% | viability, T/C (second compound 0.0316 µM, first compound 0.01 µM) 50.3% | viability, T/C (second compound 0.0316 µM, first compound 0.0316 µM) 41.2% | viability, T/C (second compound 0.0316 µM, first compound 0.1 µM) 28.2% | viability, T/C (second compound 0.1 µM, first compound 0.000316 µM) 68.3% | viability, T/C (second compound 0.1 µM, first compound 0.001 µM) 56.6% | viability, T/C (second compound 0.1 µM, first compound 0.00316 µM) 54.7% | viability, T/C (second compound 0.1 µM, first compound 0.01 µM) 47.2% | viability, T/C [36] 39.6% | viability, T/C [37] 28.9% | viability, T/C (second compound 0.316 µM, first compound 0.000316 µM) 59% | viability, T/C (second compound 0.316 µM, first compound 0.001 µM) 54% | viability, T/C (second compound 0.316 µM, first compound 0.00316 µM) 49.3% | viability, T/C (second compound 0.316 µM, first compound 0.01 µM) 44.8% | viability, T/C [38] 38.2% | viability, T/C [39] 32.5% | viability, T/C (second compound 1 µM, first compound 0.000316 µM) 62.2% | viability, T/C (second compound 1 µM, first compound 0.001 µM) 53.9% | viability, T/C (second compound 1 µM, first compound 0.00316 µM) 51.4% | viability, T/C (second compound 1 µM, first compound 0.01 µM) 45.1% | viability, T/C [40] 40.8% | viability, T/C [41] 31.6%
0.0121 µM: IC50 [2]
0.0186 µM: IC50 [1]
0.00576 µM: IC50 [3]
0.00384 µM: IC50 [5]

CCCS(=O)(=O)Nc1ccc(F)c(C(=O)c2c[nH]c3ncc(-c4ccc(Cl)cc4)cc23)c1F + CC(C)NCC(C(=O)N1CCN(c2ncnc3c2C(C)CC3O)CC1)c1ccc(Cl)cc1
2.36 µM: IC50 (curve of first compound, second compound 3.16 µM)
inactive: viability, T/C [36] 94.3% | viability, T/C [37] 101% | viability, T/C (second compound 0.1 µM, first compound 0.316 µM) 96.7% | viability, T/C (second compound 0.1 µM, first compound 1 µM) 101% | viability, T/C (second compound 0.1 µM, first compound 3.16 µM) 101% | viability, T/C (second compound 0.1 µM, first compound 10 µM) 86.7% | viability, T/C [38] 72.2% | viability, T/C [39] 74% | viability, T/C (second compound 0.316 µM, first compound 0.316 µM) 80.6% | viability, T/C (second compound 0.316 µM, first compound 1 µM) 81.1% | viability, T/C (second compound 0.316 µM, first compound 3.16 µM) 85.3% | viability, T/C (second compound 0.316 µM, first compound 10 µM) 63% | viability, T/C [40] 57.5% | viability, T/C [41] 58.2% | viability, T/C (second compound 1 µM, first compound 0.316 µM) 62.9% | viability, T/C (second compound 1 µM, first compound 1 µM) 76.3% | viability, T/C (second compound 1 µM, first compound 3.16 µM) 74.1% | viability, T/C (second compound 1 µM, first compound 10 µM) 49% | viability, T/C (second compound 3.16 µM, first compound 0.0316 µM) 49.6% | viability, T/C (second compound 3.16 µM, first compound 0.1 µM) 50.3% | viability, T/C (second compound 3.16 µM, first compound 0.316 µM) 52% | viability, T/C (second compound 3.16 µM, first compound 1 µM) 56% | viability, T/C (second compound 3.16 µM, first compound 3.16 µM) 54.4% | viability, T/C (second compound 3.16 µM, first compound 10 µM) 42.1% | viability, T/C (second compound 10 µM, first compound 0.0316 µM) 40.1% | viability, T/C (second compound 10 µM, first compound 0.1 µM) 41.8% | viability, T/C (second compound 10 µM, first compound 0.316 µM) 44.2% | viability, T/C (second compound 10 µM, first compound 1 µM) 40.7% | viability, T/C (second compound 10 µM, first compound 3.16 µM) 41.2% | viability, T/C (second compound 10 µM, first compound 10 µM) 23.4%
< 0.0316 µM: IC50 (curve of first compound, second compound 10 µM)
> 10 µM: IC50 [3] | IC50 [4] | IC50 [5]

CCN1CCN(Cc2ccc(Nc3ncc(F)c(-c4cc(F)c5nc(C)n(C(C)C)c5c4)n3)nc2)CC1
inactive: viability, T/C (compound 0.01 µM) 92% [middle of 13 runs] | viability, T/C (compound 0.0316 µM) 72.6% [middle of 13 runs] | viability, T/C (compound 0.1 µM) 62.2% [middle of 13 runs] | viability, T/C (compound 0.316 µM) 57.3% [middle of 13 runs] | viability, T/C (compound 1 µM) 56.8% [middle of 13 runs]

CC(C)(C)c1cnc(CSc2cnc(NC(=O)C3CCNCC3)s2)o1
inactive: viability, T/C (compound 0.00949 µM) 106% and 96.9% | viability, T/C (compound 0.03 µM) 108% and 105% | viability, T/C (compound 0.0949 µM) 95.8% and 93.2%
0.169 µM: IC50 (curve of compound)
active: viability, T/C (compound 0.3 µM) 4.76% and 7% | viability, T/C (compound 0.949 µM) 0.89% and 1.1% | viability, T/C (compound 3 µM) 0.6% and 0.58%
